Test results from ChEMBL document CHEMBL5107983, “Adipocyte fatty acid binding protein 4 (FABP4) inhibitors. An update from 2017 to early 2022” (Eur J Med Chem, 2022).

How the values were obtained:
[1] = molecular target: T1, Fatty acid-binding protein, adipocyte (Homo sapiens, UniProt P15090); assay: Inhibition of FABP4 (unknown origin) incubated for 10 mins by fluorescence based analysis
[2] = molecular target: T1, Fatty acid-binding protein, adipocyte; assay: Inhibition of human FABP4
[3] = molecular target: T1, Fatty acid-binding protein, adipocyte; assay: Displacement of 1,8-ANS from human recombinant FABP4 incubated for 4 mins by fluorescence based analysis

T1 sequence (P15090 whole entry): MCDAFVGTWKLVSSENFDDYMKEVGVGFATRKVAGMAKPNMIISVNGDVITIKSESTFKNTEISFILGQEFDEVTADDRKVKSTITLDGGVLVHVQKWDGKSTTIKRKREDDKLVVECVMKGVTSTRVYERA

SMILES: O=C(O)Cc1cn(-c2ccccc2-c2nc(-c3ccc4ccccc4c3)c(-c3ccccc3)s2)nn1
- IC50 [1]: 3.7 µM

SMILES: O=C(O)Cc1cn(-c2ccccc2-c2nc(-c3ccc(Cl)cc3)c(-c3ccccc3)s2)nn1
- IC50 [1]: 4.31 µM

SMILES: COc1cc(Br)c(C(C)(C)C)cc1S(=O)(=O)Nc1ccccc1C(=O)O
- IC50 [2]: 1.5 µM

SMILES: C=CCn1c(=O)[nH]c(=O)c2[nH]c(-c3ccc(OCCNC(=O)c4ccccc4)cc3)cc21
- IC50 [1]: 2.23 µM

SMILES: CC(C)OC(=O)C(C(=O)C(F)(F)F)c1cc(NS(=O)(=O)c2ccccc2)ccc1O (configuration not stated)
- IC50 [3]: 3.5 µM

SMILES: O=C(O)Cc1cn(-c2ccccc2-c2nc(-c3ccccc3)c(-c3ccccc3)s2)nn1
- IC50 [1]: 5.59 µM

SMILES: O=C(O)c1cccc(NS(=O)(=O)c2ccc(Br)c3ccccc23)c1
- IC50 [2]: 5.5 µM
